Results on three compounds are retold here after patent US20030059338A1, “Methods for sterilizing biological materials using flavonoid/flavonol stabilizers” (priority 2001, published 2003).

Structures are written as SMILES.

For one assay, the system named is thrombin. Description: Thrombin clotting activity (chromagenic) of lyophilized thrombin after gamma irradiation with stabilizer (Example 3). It counts as biochemical. The following applies: lyophilized thrombin + 10% BSA, 48.5-51.2 kGy at 1.846-1.949 kGy/hr, 4° C.; epicatechin 200 mM, purpurogallin 1M, biacalein 50 mM. As to the method: Samples of thrombin (100 NIH units, 1 ml), alone or in the presence of epicatechin (200 mM) or purpurogallin (1M, Aldrich) or biacalein (50 mM; Aldrich), and 10% bovine serum albumin, were prepared and lyophilized. Lyophilized samples were gamma irradiated to 48.5-51.2 kGy at a dose rate of 1.846-1.949 kGy/hr at 4° C. All samples were then assayed for clotting activity by conventional chromagenic methodology.

The test system of assay [1] is anti-insulin monoclonal immunoglobulin. The assay is described as follows: ELISA activity of freeze-dried anti-insulin monoclonal immunoglobulin after gamma irradiation with stabilizer (Example 1). The class given is binding. The following applies: freeze-dried anti-insulin mAb + 1% BSA, irradiated to 45 kGy at 1.83 kGy/hr, 4° C.; diosmin 39.3 mM or silymarin 246 mM. As to the method:
Samples were prepared by combining anti-insulin monoclonal antibody ([…] of 2 mg/ml solution) and either diosmin (39.3 mM; Sigma cat# D3525 lot 125H0831) or silymarin (246 mM; Aldrich cat #24592-4) in 3 ml glass vials with 13 mm stoppers. Samples were freeze-dried for approximately 64 hours and stoppered under vacuum and sealed with an aluminum, crimped seal. Samples were irradiated at a dose rate of 1.83 kGy/hr to a total dose of 45 kGy at 4° C. Monoclonal immunoglobulin activity was determined by a standard ELISA protocol. Maxisorp plates were coated with human recombinant insulin at […] overnight at 4° C. The plate was blocked with […] of blocking buffer (PBS, pH 7.4, 2% BSA) for two hours at 37° C. and then washed six times with wash buffer (TBS, pH 7, 0.05% TWEEN 20). Samples were re-suspended in […] of high purity water (100 ng/ml), diluted to 5 Fg/ml in a 300 Fl U-bottomed plate coated for either overnight or two hours with blocking buffer. Serial 3-fold dilutions were performed, with a final concentration of […]. Plates were incubated for one hour at 37° C. with agitation and then washed six times with a wash buffer. Phosphatase-labelled goat anti-mouse IgG (H+L) was diluted to 50 ng/ml in binding buffer and […] was added to each well. […] The plate was read on a Multiskan MCC/340 at 405 nm with the background absorbance at 620 nm subtracted.
Background: An ELISA detects its analyte on a solid surface through an enzyme-linked reagent.

In the case of `O=c1cc(-c2ccccc2)oc2cc(O)c(O)c(O)c12` [biacalein], the “thrombin activity retained following gamma irradiation” value in the assay with thrombin is “about 57%”.
Regarding `COc1ccc(-c2cc(=O)c3c(O)cc(O[C@@H]4O[C@H](CO[C@@H]5O[C@@H](C)[C@H](O)[C@@H](O)[C@H]5O)[C@@H](O)[C@H](O)[C@H]4O)cc3o2)cc1O` [diosmin], the recovery of activity in assay [1] is on record as roughly 62%.
In the case of `O=c1c(O)cccc2cc(O)c(O)c(O)c12` [purpurogallin], in the assay with thrombin, the “thrombin activity retained following gamma irradiation” value was “over 90%”.
